Legend:
[1] = system: DsRed-express-labeled E. coli RP437; assay: Confocal imaging of E. coli biofilms on stainless steel coupons (COMSTAT); type: cell-based, Escherichia coli; conditions: 200 μM, 24 h at 37° C., CLSM/COMSTAT
Description: The effects of SHLs upon the bacterial biofilm were examined; more specifically, the effect of SHLs upon the biofilm architecture. […] These studies were conducted by static biofilm assays employing crystal violet staining that indicates the total biomass that resides within a biofilm but provides no indication regarding the topology of the biofilms. To elucidate the topological features assumed by the E. coli RP437 biofilm in the presence of SHLs and BF8 48, studies of biofilms consisting of DsRed-express-labeled E. coli RP437 that is fluorescent and can be easily visualized by confocal laser scanning microscopy (CLSM) were performed. […] Further, the stacked images in vinyl-SHL 3 indicating the maximum thickness of the biofilm is considerably smaller than the biofilms in BF8 48 and the untreated E. coli samples. We developed the biofilms consisting of DsRed-express-labeled E. coli on stainless steel coupons (316 L, 1 in×1 in.) for 24 h at 37° C. that were treated with BF8 48 or SHLs or were left untreated. All the samples were analyzed with CLSM (see FIG. 8) and the maximum thickness of biofilms calculated using the COMSTAT software. […] Moreover, butyl-SHL 8 and butoxy-SCPA 46 reduce the biofilm thickness by 38% and 27%, respectively.
An overnight culture of E. coli RP437 pRSH103 grown in LB media (OD600 of 1.0) containing tetracycline (3 μg/mL) was subsequently sub-cultured to an OD600 of 0.04 (1:100 dilution with LB media). To each well in the solvent resistant polypropylene or polystyrene-based 24-well microtiter plates was added 200 μM synthetic molecules in DMSO solution respectively. In addition, to each of the wells containing the known concentrations of synthetic molecules was added 2 mL of the sub-cultured bacteria and the contents in each well were gently mixed. […] The fluorescent emission was detected with a LP 560 nm emission filter. The coupons were gently placed upside down on a microscope cover glass (24×60 mm, No. 2, VWR International LLC, West Chester, Pa., USA) and analyzed with CLSM. […]

SK-N-SH cells = assay: Human neuroblastoma cancer cell cytotoxicity assay (CCK-8); type: cell-based; conditions: 200 or 300 μM, 1 h exposure, read after 24 h
Description: After examining the efficacy of SHLs at inhibiting biofilm, dispersing established biofilms, and reducing the maximum thickness of biofilms without being toxic to the planktonic bacterial cells, we tested the cytotoxicity of the key potent SHLs on the human neuroblastoma cancer cell line SK-N-SH. These studies were conducted such that the SK-N-SH cells were subjected to the maximum concentrations of the key potent SHLs tested on bacteria.
A previously grown T-flask of SK-N-SH cells was observed under a microscope to confirm the confluence of the cells. Next, the old media was discarded and the adherent cells were washed with ˜10 mL of MEM(−). The wash was discarded and 2 mL of Trypsin-EDTA solution was added to the T-flask and incubated for 10 minutes at 37° C. and at 5% atmosphere of CO2. Afterwards, the flask was viewed under a microscope to determine if the cells were suspended in the solution. Subsequently, ˜8 mL of MEM(+) was added to the flask and carefully mixed via pipette to break-up any large clusters of cells. 100 μL of the culture was added to an Eppendorf tube and combined with 100 μL of […]. A hemocytometer and glass cover slide was carefully cleaned with a kimwipe and ethanol. Placing the glass cover slide on top of the hemocytometer, 10 μL of the mixture in the Eppendorf tube was pipetted into the two grooves on the hemocytometer, avoiding the generation of bubbles. The hemocytometer was viewed one chamber at time under a microscope and the live cells were counted using the hemocytometer cell counting method. The remaining cell culture in the T-flask was diluted with MEM(+) to 25 mL such that there would be ˜5000 cells/mL. 100 μL of the culture was placed into wells on a 96 well plate such that one column had only MEM(+) and the wells on the outer perimeter of the plate were left empty. Four plates were made in this manner so that there would be plates for times 0, 24, 48, and 72 h. The plate was then incubated for 24 h at 37° C. and at 5% atmosphere of CO2. Subsequently, the old media was discarded and the wells were subjected to either 200 μM or 300 μM solutions of compounds 3, 4, 8, and 46 in MEM(+) (100 μL) such that one column still contained only MEM(+) and one column contained MEM(+) and untreated cells. The plate was incubated for 1 h and then the solutions were discarded and fresh MEM(+) media was added (100 μL). Each plate was then incubated for the desired time (0, 24, 48, or 72 h). After incubation, 10 μL of CCK-8 solution was added to each well and then the plate was incubated for 2 h followed by reading the OD450 with a microplate reader.

Structure (SMILES)	reduction of the maximum thickness of biofilm [1] [%]	cytotoxicity on human neuroblastoma cancer cells (in words) (SK-N-SH cells)
CC1=C(Br)/C(=C/Br)OC1=O [BF8 48, reference compound]	17	–
CCCCOc1c(NC2CCCC2)c(=O)c1=O [butoxy-SCPA 46]	27	toxic
C=Cc1c(NC2CCOC2=O)c(=O)c1=O (stereo not shown) [vinyl-SHL 3]	–	toxic

Source: patent US8940911B2, “Squarylated lactones inhibitors for bacterial biofilm formation” (Syracuse University, priority 2012, dated 2015)
